From patent US12180304B2 (Zhejiang University, priority 2020, dated 2024)

Biological target: T1, intact recombinant antibody against clothianidin and dinotefuran (Mus musculus, UniProt P01837+P01868)
T1 construct: The heavy and light chain variable region genes were ligated to linearized expression vectors pCDNA3.4-Mouse-IgG1 and pCDNA3.4-Mouse-Kappa; mouse IgG1 heavy chain constant region (fusion partner); mouse kappa light chain constant region (fusion partner); made in house; host or cells: HEK293F cells, double-plasmid transfection, Protein A purification
Test: heterologous indirect competitive ELISA (thiacloprid-OVA coating antigen)
Assay type: binding
Description: In the early stage of preparation of parental ascitic monoclonal antibodies, a difference in sensitivity was compared between the homologous indirect competitive ELISA (coating antigen was clothianidin-OVA) and the heterologous indirect ELISA (coating antigens were thiacloprid-OVA and imidaclothiz-OVA).
In the present disclosure, the specificity of the antibody was evaluated by detecting the cross-reactivity with eight common neonicotinoid insecticides.

Structure (SMILES)	linear range (IC20 to IC80) [ng/mL]
CN/C(=N\[N+](=O)[O-])NCc1cnc(Cl)s1 [clothianidin]	1.08 to 15.06
CN/C(=N/CC1CCOC1)N[N+](=O)[O-] (centres unmarked) [dinotefuran]	3.78 to 30.03
